Measurements published in patent US12286405B2, “Scalable synthesis of dual-target inhibitor of cannabinoid-1 receptor and inducible nitric oxide synthase” (THE UNITED STATES OF AMERICA, AS REPRESENTED BY THE …, priority 2019, dated 2025).
≈ marks a conversion by molar mass, not a printed value.

Assays:
[1] = solubility of rac-1 in organic solvent (dichloromethane); assay type: physicochemical; details: organic solvent or mixture
Source text: To overcome this obstacle, the present inventors discovered an enantioselective approach to (S,1E,NE)-N-(1-aminoethylidene)-3-(4-chlorophenyl)-4-phenyl-N′-((4-(trifluoromethyl)phenyl)sulfonyl)-4,5-dihydro-1H-pyrazole-1-carboximidamide (S)-1 in high optical purity.

[2] = target: CB1R (Homo sapiens, UniProt P21554); details: in vivo; mediated by the CB1R antagonism; cited from earlier work
[3] = system: animal models of fibrosis; details: mediated by iNOS inhibition and CB1R antagonism; cited from earlier work

CB1R, sequence (P21554 whole entry): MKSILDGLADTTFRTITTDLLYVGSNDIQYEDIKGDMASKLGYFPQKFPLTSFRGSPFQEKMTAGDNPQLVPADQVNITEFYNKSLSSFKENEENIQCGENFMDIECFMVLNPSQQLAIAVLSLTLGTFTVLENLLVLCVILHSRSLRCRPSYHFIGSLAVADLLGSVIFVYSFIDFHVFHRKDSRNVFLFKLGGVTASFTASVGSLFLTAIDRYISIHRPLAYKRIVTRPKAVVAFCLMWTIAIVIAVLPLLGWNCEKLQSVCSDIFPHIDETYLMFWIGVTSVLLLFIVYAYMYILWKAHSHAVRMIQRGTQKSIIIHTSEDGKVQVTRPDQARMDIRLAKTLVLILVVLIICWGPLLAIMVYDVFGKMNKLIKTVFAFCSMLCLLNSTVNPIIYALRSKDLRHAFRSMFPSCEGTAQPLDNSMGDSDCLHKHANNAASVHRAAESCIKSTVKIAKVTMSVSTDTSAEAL

Row | SMILES | solubility [1] | food intake [2] | antifibrotic effect [3]
1 | C/C(N)=N\C(=N/S(=O)(=O)c1ccc(C(F)(F)F)cc1)N1CC(c2ccccc2)C(c2ccc(Cl)cc2)=N1 (racemic) [rac-1, (1E,NE)-N-(1-aminoethylidene)-3-(4-chlorophenyl)-4-phenyl-N′-((4-(trifluoromethyl)phenyl)sulfonyl)-4,5-dihydro-1H-pyrazole-1-carboximidamide] | ~1000 µg/mL (≈ 1820 µM) | – | –
2 | C/C(N)=N\C(=N\S(=O)(=O)c1ccc(C(F)(F)F)cc1)N1C[C@H](c2ccccc2)C(c2ccc(Cl)cc2)=N1 [(S)-1, (S,1E,NE)-N-(1-aminoethylidene)-3-(4-chlorophenyl)-4-phenyl-N′-((4-(trifluoromethyl)phenyl)sulfonyl)-4,5-dihydro-1H-pyrazole-1-carboximidamide] | – | reduction of food intake | antifibrotic effect
